Data: publication PMC5218480 (PLoS ONE, 2017)

Tested on: MV-4-11 cells
Experiment: Gene expression microarray analysis (Affymetrix PrimeView) and GSEA
Format: cell-based, human
Parameters: RFU PODN (11730768_x_at) / Fold change /veh PODN (11730768_x_at) / RFU LINC00158 (11744669_a_at) / Fold change /veh LINC00158 (11744669_a_at) / RFU DUSP10 (11751237_a_at) / Fold change /veh DUSP10 (11751237_a_at) / RFU ID3 (11757404_x_at) / Fold change /veh ID3 (11757404_x_at) / RFU PLEKHG5 (11737974_s_at) / Fold change /veh PLEKHG5 (11737974_s_at) / RFU LRRC4B (11730491_at) / Fold change /veh LRRC4B (11730491_at) / RFU GIMAP4 (11747438_a_at) / Fold change /veh GIMAP4 (11747438_a_at) / RFU KRT8 (11758183_x_at) / Fold change /veh KRT8 (11758183_x_at) / RFU CNN1 (11734310_a_at) / Fold change /veh CNN1 (11734310_a_at) / RFU VPS37D (11726825_at) / Fold change /veh VPS37D (11726825_at) / RFU C10orf10 (11716522_x_at) / Fold change /veh C10orf10 (11716522_x_at) / RFU KIR2DL2 /// KIR2DL4 /// KIR2DL5A /// KIR2DL5B /// KIR2DS1 /// KIR2DS2 /// KIR2DS3 /// KIR2DS4 /// KIR3DL3 /// KIR3DL3 /// KIR3DS1 (11738374_at) / Fold change /veh KIR2DL2 /// KIR2DL4 /// KIR2DL5A /// KIR2DL5B /// KIR2DS1 /// KIR2DS2 /// KIR2DS3 /// KIR2DS4 /// KIR3DL3 /// KIR3DL3 /// KIR3DS1 (11738374_at) / RFU C1QL1 (11718748_at) / Fold change /veh C1QL1 (11718748_at) / RFU TMPRSS4 (11747572_a_at) / Fold change /veh TMPRSS4 (11747572_a_at) / RFU HAMP (11756126_x_at) / Fold change /veh HAMP (11756126_x_at) / RFU RNFT2 (11725882_a_at) / Fold change /veh RNFT2 (11725882_a_at) / RFU NR4A2 (11747474_a_at) / Fold change /veh NR4A2 (11747474_a_at) / RFU ABCC12 (11746883_a_at) / Fold change /veh ABCC12 (11746883_a_at) / RFU TMEM136 (11760407_x_at) / Fold change /veh TMEM136 (11760407_x_at) / RFU CLDN22 /// WWC2 (11732394_at) / Fold change /veh CLDN22 /// WWC2 (11732394_at) / RFU HLA-DPB1 (11760878_x_at) / Fold change /veh HLA-DPB1 (11760878_x_at) / RFU SPINT1 (11716480_a_at) / Fold change /veh SPINT1 (11716480_a_at) / RFU GAP43 (11754022_s_at) / Fold change /veh GAP43 (11754022_s_at) / RFU A4GNT (11735810_at) / Fold change /veh A4GNT (11735810_at) / RFU PRB3 (11715151_x_at) / Fold change /veh PRB3 (11715151_x_at) / RFU TUBB4B (11761932_at) / Fold change /veh TUBB4B (11761932_at) / RFU CAPN14 (11732068_a_at) / Fold change /veh CAPN14 (11732068_a_at) / RFU TMCC2 (11721928_a_at) / Fold change /veh TMCC2 (11721928_a_at) / RFU IRGQ (11745062_a_at) / Fold change /veh IRGQ (11745062_a_at) / RFU FAM174B (11720279_a_at) / Fold change /veh FAM174B (11720279_a_at) / RFU TMPRSS4 (11748680_a_at) / Fold change /veh TMPRSS4 (11748680_a_at) / RFU FAM212B (11763350_a_at) / Fold change /veh FAM212B (11763350_a_at) / RFU PLEKHG5 (11743358_a_at) / Fold change /veh PLEKHG5 (11743358_a_at) / RFU ZSCAN30 (11745921_a_at) / Fold change /veh ZSCAN30 (11745921_a_at) / RFU CMKLR1 (11741424_a_at) / Fold change /veh CMKLR1 (11741424_a_at) / RFU LOC101060620 /// MAPK8IP1 (11723275_at) / Fold change /veh LOC101060620 /// MAPK8IP1 (11723275_at) / RFU SPTSSB (11747773_x_at) / Fold change /veh SPTSSB (11747773_x_at) / RFU PRSS12 (11739890_at) / Fold change /veh PRSS12 (11739890_at) / RFU BIN1 (11741810_x_at) / Fold change /veh BIN1 (11741810_x_at) / RFU WNT11 (11732464_a_at) / Fold change /veh WNT11 (11732464_a_at) / RFU C10orf10 (11716521_a_at) / Fold change /veh C10orf10 (11716521_a_at) / RFU C5orf56 (11738089_at) / Fold change /veh C5orf56 (11738089_at) / RFU CYB561 (11721691_x_at) / Fold change /veh CYB561 (11721691_x_at) / RFU ANKRD19P (11752326_a_at) / Fold change /veh ANKRD19P (11752326_a_at) / RFU OR2T12 /// OR2T33 /// OR2T8 (11738714_s_at) / Fold change /veh OR2T12 /// OR2T33 /// OR2T8 (11738714_s_at) / RFU VCAN (11748164_a_at) / Fold change /veh VCAN (11748164_a_at) / RFU JSRP1 (11732532_at) / Fold change /veh JSRP1 (11732532_at) / RFU KRTAP10-11 (11738290_x_at) / Fold change /veh KRTAP10-11 (11738290_x_at) / RFU MYO3A (11730013_a_at) / Fold change /veh MYO3A (11730013_a_at) / RFU EBF3 (11725865_a_at) / Fold change /veh EBF3 (11725865_a_at) / RFU CAMK2N1 (11719241_x_at) / Fold change /veh CAMK2N1 (11719241_x_at) / RFU C5orf56 (11738088_a_at) / Fold change /veh C5orf56 (11738088_a_at) / RFU OLFML3 (11715873_a_at) / Fold change /veh OLFML3 (11715873_a_at) / RFU LOC100653217 /// NTM (11731650_a_at) / Fold change /veh LOC100653217 /// NTM (11731650_a_at) / RFU MAPK11 (11762145_a_at) / Fold change /veh MAPK11 (11762145_a_at) / RFU FIZ1 (11724087_x_at) / Fold change /veh FIZ1 (11724087_x_at) / RFU OASL (11726364_x_at) / Fold change /veh OASL (11726364_x_at) / RFU SOX15 (11748057_x_at) / Fold change /veh SOX15 (11748057_x_at) / RFU CD79A (11719716_a_at) / Fold change /veh CD79A (11719716_a_at) / RFU HIST1H1D (11736915_at) / Fold change /veh HIST1H1D (11736915_at) / RFU CASKIN2 (11723855_a_at) / Fold change /veh CASKIN2 (11723855_a_at) / RFU LOC730098 (11760151_x_at) / Fold change /veh LOC730098 (11760151_x_at) / RFU OR4N2 (11742367_at) / Fold change /veh OR4N2 (11742367_at) / RFU PRRT2 (11749266_a_at) / Fold change /veh PRRT2 (11749266_a_at) / RFU SNX32 (11753110_a_at) / Fold change /veh SNX32 (11753110_a_at) / RFU CDHR5 (11726645_a_at) / Fold change /veh CDHR5 (11726645_a_at) / RFU RCAN1 (11760418_a_at) / Fold change /veh RCAN1 (11760418_a_at) / RFU FAM167A (11723789_a_at) / Fold change /veh FAM167A (11723789_a_at) / RFU FAM26E (11764081_at) / Fold change /veh FAM26E (11764081_at) / RFU ISYNA1 (11749810_s_at) / Fold change /veh ISYNA1 (11749810_s_at) / RFU ACY1 (11761880_at) / Fold change /veh ACY1 (11761880_at) / RFU 11764098_at / Fold change /veh 11764098_at / RFU SAMD14 (11745864_x_at) / Fold change /veh SAMD14 (11745864_x_at) / RFU NPB (11741838_a_at) / Fold change /veh NPB (11741838_a_at) / RFU TMPRSS6 (11731388_a_at) / Fold change /veh TMPRSS6 (11731388_a_at) / RFU KRTAP10-2 (11738614_at) / Fold change /veh KRTAP10-2 (11738614_at) / RFU ARHGAP8 /// PRR5-ARHGAP8 (11727945_x_at) / Fold change /veh ARHGAP8 /// PRR5-ARHGAP8 (11727945_x_at) / RFU KRTAP5-7 /// NADSYN1 (11734609_at) / Fold change /veh KRTAP5-7 /// NADSYN1 (11734609_at) / RFU RASL12 (11751679_a_at) / Fold change /veh RASL12 (11751679_a_at) / RFU CDKN2B (11736163_a_at) / Fold change /veh CDKN2B (11736163_a_at) / RFU PRF1 (11729649_at) / Fold change /veh PRF1 (11729649_at) / RFU, ZNF638 /// ZNF638-IT1 / Fold change vs veh, ZNF638 /// ZNF638-IT1 / RFU, PANK3 / Fold change vs veh, PANK3 / RFU, SH3YL1 / Fold change vs veh, SH3YL1 / RFU, ZEB2 / Fold change vs veh, ZEB2 / RFU, NRIP1 / Fold change vs veh, NRIP1 / RFU, PTTG1IP / Fold change vs veh, PTTG1IP / RFU, CAPN2 / Fold change vs veh, CAPN2 / RFU, MED14 / Fold change vs veh, MED14 / RFU, SNORA58 / Fold change vs veh, SNORA58 / RFU, C1orf63 / Fold change vs veh, C1orf63 / RFU, LRRFIP1 / Fold change vs veh, LRRFIP1 / RFU, NDUFAF7 / Fold change vs veh, NDUFAF7 / RFU, SLC12A2 / Fold change vs veh, SLC12A2 / RFU, IBTK / Fold change vs veh, IBTK / RFU, ESF1 / Fold change vs veh, ESF1 / Fold change vs veh, TMEM50B / RFU, TAOK1 / Fold change vs veh, TAOK1 / RFU, ACBD3 / Fold change vs veh, ACBD3 / RFU, TMA16 / Fold change vs veh, TMA16 / RFU, RWDD3 / Fold change vs veh, RWDD3 / RFU, BCAT1 / Fold change vs veh, BCAT1 / RFU, EDEM3 / Fold change vs veh, EDEM3 / RFU, TMEM33 / Fold change vs veh, TMEM33 / RFU, WDR75 / Fold change vs veh, WDR75 / RFU, AHCTF1 / Fold change vs veh, AHCTF1 / RFU, TFRC / Fold change vs veh, TFRC / RFU, ZDHHC17 / Fold change vs veh, ZDHHC17 / RFU, NOM1 / Fold change vs veh, NOM1 / RFU, ARL8B / Fold change vs veh, ARL8B / RFU, ZBTB11 / Fold change vs veh, ZBTB11 / RFU, TAMM41 / Fold change vs veh, TAMM41 / RFU, KIAA1704 /// LOC100996395 / Fold change vs veh, KIAA1704 /// LOC100996395 / RFU, ING1 / Fold change vs veh, ING1 / RFU, TRMT61B / Fold change vs veh, TRMT61B / RFU, FUBP3 / Fold change vs veh, FUBP3 / RFU, TP53 / Fold change vs veh, TP53 / RFU, TNKS2 / Fold change vs veh, TNKS2 / RFU, ZFP14 / Fold change vs veh, ZFP14 / RFU, ACTR2 / Fold change vs veh, ACTR2 / RFU, PPP3R1 / Fold change vs veh, PPP3R1 / RFU, PIK3R1 / Fold change vs veh, PIK3R1 / RFU, HNRNPA1 / Fold change vs veh, HNRNPA1 / RFU, RNF170 / Fold change vs veh, RNF170 / RFU, ZNF28 / Fold change vs veh, ZNF28 / RFU, RNGTT / Fold change vs veh, RNGTT / RFU, OGT / Fold change vs veh, OGT / RFU, BRD1 / Fold change vs veh, BRD1 / RFU, MARS / Fold change vs veh, MARS / RFU, ZNF655 / Fold change vs veh, ZNF655 / RFU, FAHD1 / Fold change vs veh, FAHD1 / RFU, BDP1 / Fold change vs veh, BDP1 / RFU, LRRCC1 / Fold change vs veh, LRRCC1 / RFU, ARID1A / Fold change vs veh, ARID1A / RFU, ZNF146 / Fold change vs veh, ZNF146 / RFU, ZNF330 / Fold change vs veh, ZNF330 / RFU, GPN3 / Fold change vs veh, GPN3 / RFU, C9orf123 / Fold change vs veh, C9orf123 / RFU, N4BP2L2 / Fold change vs veh, N4BP2L2 / RFU, ARFIP1 / Fold change vs veh, ARFIP1 / RFU, FAM179B / Fold change vs veh, FAM179B / RFU, BCL10 / Fold change vs veh, BCL10 / RFU, UHRF1BP1L / Fold change vs veh, UHRF1BP1L / RFU, BET1 / Fold change vs veh, BET1 / RFU, CNOT2 / Fold change vs veh, CNOT2 / RFU, ZNF268 / Fold change vs veh, ZNF268 / Fold change vs veh, ZNF507 / RFU, DGCR2 / Fold change vs veh, DGCR2 / RFU, WDSUB1 / Fold change vs veh, WDSUB1 / Fold change vs veh, HSP90B1 /// MIR3652 / RFU, ADSS / Fold change vs veh, ADSS / RFU, GK / Fold change vs veh, GK / RFU, ZNF148 / Fold change vs veh, ZNF148 / RFU, TAF9 / Fold change vs veh, TAF9 / RFU, SLC1A5 / Fold change vs veh, SLC1A5 / RFU, SLMO2 / Fold change vs veh, SLMO2 / RFU, ABCC4 / Fold change vs veh, ABCC4 / RFU, LOC101060439 /// RAP1B / Fold change vs veh, LOC101060439 /// RAP1B / RFU, RFX7 / Fold change vs veh, RFX7 / RFU, GTPBP10 / Fold change vs veh, GTPBP10 / RFU, CNEP1R1 / Fold change vs veh, CNEP1R1 / RFU, BIVM-ERCC5 /// ERCC5 / Fold change vs veh, BIVM-ERCC5 /// ERCC5 / RFU, ILF3 / Fold change vs veh, ILF3 / RFU 11762660_at / Fold change /veh 11762660_at / RFU VCAN (11757783_s_at) / Fold change /veh VCAN (11757783_s_at) / RFU DDX43 (11728927_at) / Fold change /veh DDX43 (11728927_at) / RFU KRT8 (11758188_x_at) / Fold change /veh KRT8 (11758188_x_at) / RFU NKD1 (11759106_at) / Fold change /veh NKD1 (11759106_at) / RFU SRD5A1 (11742802_a_at) / Fold change /veh SRD5A1 (11742802_a_at) / RFU TPSAB1 /// TPSB2 (11721975_s_at) / Fold change /veh TPSAB1 /// TPSB2 (11721975_s_at) / RFU GSTM3 (11746129_a_at) / Fold change /veh GSTM3 (11746129_a_at) / RFU IL23R (11737362_x_at) / Fold change /veh IL23R (11737362_x_at) / RFU TMEM51 (11727254_a_at) / Fold change /veh TMEM51 (11727254_a_at) / RFU PIWIL2 (11732686_x_at) / Fold change /veh PIWIL2 (11732686_x_at) / RFU ORM1 (11744905_x_at) / Fold change /veh ORM1 (11744905_x_at) / RFU CCDC152 (11743942_at) / Fold change /veh CCDC152 (11743942_at) / RFU ECM1 (11717891_a_at) / Fold change /veh ECM1 (11717891_a_at) / RFU IL23R (11748794_a_at) / Fold change /veh IL23R (11748794_a_at) / RFU TNFAIP8L3 (11732012_x_at) / Fold change /veh TNFAIP8L3 (11732012_x_at) / RFU MBOAT4 (11741988_at) / Fold change /veh MBOAT4 (11741988_at) / RFU 11764193_at / Fold change /veh 11764193_at / RFU TMEM53 (11763286_at) / Fold change /veh TMEM53 (11763286_at) / RFU MAGEB2 (11727129_at) / Fold change /veh MAGEB2 (11727129_at) / RFU TMEM200A (11744735_a_at) / Fold change /veh TMEM200A (11744735_a_at) / RFU CCDC152 (11751479_a_at) / Fold change /veh CCDC152 (11751479_a_at) / RFU FAM211A (11726209_a_at) / Fold change /veh FAM211A (11726209_a_at) / RFU RGS16 (11746705_a_at) / Fold change /veh RGS16 (11746705_a_at) / RFU VCAN (11755009_s_at) / Fold change /veh VCAN (11755009_s_at) / RFU RHOB (11743442_s_at) / Fold change /veh RHOB (11743442_s_at) / RFU RGS16 (11720943_a_at) / Fold change /veh RGS16 (11720943_a_at) / RFU RGS16 (11720944_at) / Fold change /veh RGS16 (11720944_at) / RFU, VPS4B / Fold change vs veh, VPS4B / RFU, CREB1 / Fold change vs veh, CREB1 / RFU, DNAJC13 / Fold change vs veh, DNAJC13 / RFU, GNAQ / Fold change vs veh, GNAQ / RFU, CDK5R1 / Fold change vs veh, CDK5R1 / RFU, ZRANB3 / Fold change vs veh, ZRANB3 / RFU, CUL4A / Fold change vs veh, CUL4A / RFU, CCNY / Fold change vs veh, CCNY / RFU, UFL1 / Fold change vs veh, UFL1 / RFU, COG3 / Fold change vs veh, COG3 / RFU, DIAPH2 / Fold change vs veh, DIAPH2 / RFU, SKA2 / Fold change vs veh, SKA2 / RFU, AFF3 / Fold change vs veh, AFF3 / RFU, LMF1 / Fold change vs veh, LMF1 / RFU, IPO11 / Fold change vs veh, IPO11 / RFU, DFFB / Fold change vs veh, DFFB / RFU, FOXP1 / Fold change vs veh, FOXP1 / RFU, CARD8 / Fold change vs veh, CARD8 / RFU, STRN3 / Fold change vs veh, STRN3 / RFU, ADK / Fold change vs veh, ADK / RFU, RASSF2 / Fold change vs veh, RASSF2 / RFU, WIPF1 / Fold change vs veh, WIPF1 / RFU, LARP1B / Fold change vs veh, LARP1B / RFU, RASA1 / Fold change vs veh, RASA1 / RFU, RB1 / Fold change vs veh, RB1 / RFU, PPFIA1 / Fold change vs veh, PPFIA1 / RFU, MAT2A / Fold change vs veh, MAT2A / RFU, CCT5 / Fold change vs veh, CCT5 / RFU, WDR92 / Fold change vs veh, WDR92 / RFU, CUX1 / Fold change vs veh, CUX1 / RFU, TTC7A / Fold change vs veh, TTC7A / RFU, TMEM135 / Fold change vs veh, TMEM135 / RFU, DEPTOR / Fold change vs veh, DEPTOR / RFU, CPM / Fold change vs veh, CPM / RFU, DNAJB6 / Fold change vs veh, DNAJB6 / RFU, CACNA2D3 / Fold change vs veh, CACNA2D3 / RFU, DTX4 / Fold change vs veh, DTX4 / RFU, TFCP2 / Fold change vs veh, TFCP2 / RFU, GMCL1 /// GMCL1P1 / Fold change vs veh, GMCL1 /// GMCL1P1 / RFU, AEBP2 / Fold change vs veh, AEBP2 / RFU, SNHG1 /// SNORD22 /// SNORD25 /// SNORD26 /// SNORD27 /// SNORD28 /// SNORD29 /// SNORD31 / Fold change vs veh, SNHG1 /// SNORD22 /// SNORD25 /// SNORD26 /// SNORD27 /// SNORD28 /// SNORD29 /// SNORD31 / Fold change (Aza/veh), C12orf56 (ProbeSet 11735607_a_at) / Fold change (ACY-1035/veh), C12orf56 (ProbeSet 11735607_a_at) / Fold change (Aza/veh), FGFR1OP (ProbeSet 11751329_s_at) / Fold change (ACY-1035/veh), FGFR1OP (ProbeSet 11751329_s_at) / Fold change (Aza/veh), VPS36 (ProbeSet 11739960_a_at) / Fold change (ACY-1035/veh), VPS36 (ProbeSet 11739960_a_at) / RFU SYPL1 (11715823_x_at) / Fold change /veh SYPL1 (11715823_x_at) / RFU IGFBP7 (11715501_s_at) / Fold change /veh IGFBP7 (11715501_s_at) / RFU REEP3 (11722064_at) / Fold change /veh REEP3 (11722064_at) / RFU IGLL1 (11728026_x_at) / Fold change /veh IGLL1 (11728026_x_at): dose or concentration left out as unconfirmed
Details: ProbeSet 11719817_x_at; LIST B

## Nc1ncn([C@@H]2O[C@H](CO)[C@@H](O)[C@H]2O)c(=O)n1 [azacitidine]
  RFU, BET1: 81.04 RFU
